Laboratory results: ChEMBL document CHEMBL5385856, “Novel 1,4,5,6-tetrahydrocyclopenta[d]imidazole-5-carboxamide-based JNK3 inhibitors: Design, synthesis, molecular docking, and therapeutic potential in neurodegenerative diseases” (Eur J Med Chem, 2023)

Tested on: Cortical neurone
Assay: Neuroprotective activity against Abeta42-induced neuronal apoptosis in Sprague-Dawley rat primary cortical neuron cells assessed as cell viability at 20 uM preincubated for 90 mins followed by Abeta42 addition for 24 hrs and measured on day 5 by MTT assay (reference value: 52%)
Format: functional
Settings: 120 h, time 5 day, read-out: Activity

`Oc1ccc(/C=C/c2cc(O)cc(O)c2)cc1` [RESVERATROL] was tested, and the viability at 20 µM was 84.2%.
